Experimental data from article PMC12130229, “Inherent fast inactivation particle of Nav channels as a new binding site for a neurotoxin” (The EMBO Journal, 2025).

Columns and labels:
[1] = target: T1, rNav1.8 (Rattus norvegicus, UniProt Q62968); assay: Patch clamp, intracellular KIFMK: block of current density (Fig 6E,F); format: cell-based; settings: Fig 6F
T1 construct: expressed in transfected cells; host or cells: ND7/23

[2] = target: T2, hNav1.7 (Homo sapiens, UniProt Q15858); format: cell-based
T2 construct: expressed in transfected cells; host or cells: HEK293T
T2 sequence (Q15858 whole entry): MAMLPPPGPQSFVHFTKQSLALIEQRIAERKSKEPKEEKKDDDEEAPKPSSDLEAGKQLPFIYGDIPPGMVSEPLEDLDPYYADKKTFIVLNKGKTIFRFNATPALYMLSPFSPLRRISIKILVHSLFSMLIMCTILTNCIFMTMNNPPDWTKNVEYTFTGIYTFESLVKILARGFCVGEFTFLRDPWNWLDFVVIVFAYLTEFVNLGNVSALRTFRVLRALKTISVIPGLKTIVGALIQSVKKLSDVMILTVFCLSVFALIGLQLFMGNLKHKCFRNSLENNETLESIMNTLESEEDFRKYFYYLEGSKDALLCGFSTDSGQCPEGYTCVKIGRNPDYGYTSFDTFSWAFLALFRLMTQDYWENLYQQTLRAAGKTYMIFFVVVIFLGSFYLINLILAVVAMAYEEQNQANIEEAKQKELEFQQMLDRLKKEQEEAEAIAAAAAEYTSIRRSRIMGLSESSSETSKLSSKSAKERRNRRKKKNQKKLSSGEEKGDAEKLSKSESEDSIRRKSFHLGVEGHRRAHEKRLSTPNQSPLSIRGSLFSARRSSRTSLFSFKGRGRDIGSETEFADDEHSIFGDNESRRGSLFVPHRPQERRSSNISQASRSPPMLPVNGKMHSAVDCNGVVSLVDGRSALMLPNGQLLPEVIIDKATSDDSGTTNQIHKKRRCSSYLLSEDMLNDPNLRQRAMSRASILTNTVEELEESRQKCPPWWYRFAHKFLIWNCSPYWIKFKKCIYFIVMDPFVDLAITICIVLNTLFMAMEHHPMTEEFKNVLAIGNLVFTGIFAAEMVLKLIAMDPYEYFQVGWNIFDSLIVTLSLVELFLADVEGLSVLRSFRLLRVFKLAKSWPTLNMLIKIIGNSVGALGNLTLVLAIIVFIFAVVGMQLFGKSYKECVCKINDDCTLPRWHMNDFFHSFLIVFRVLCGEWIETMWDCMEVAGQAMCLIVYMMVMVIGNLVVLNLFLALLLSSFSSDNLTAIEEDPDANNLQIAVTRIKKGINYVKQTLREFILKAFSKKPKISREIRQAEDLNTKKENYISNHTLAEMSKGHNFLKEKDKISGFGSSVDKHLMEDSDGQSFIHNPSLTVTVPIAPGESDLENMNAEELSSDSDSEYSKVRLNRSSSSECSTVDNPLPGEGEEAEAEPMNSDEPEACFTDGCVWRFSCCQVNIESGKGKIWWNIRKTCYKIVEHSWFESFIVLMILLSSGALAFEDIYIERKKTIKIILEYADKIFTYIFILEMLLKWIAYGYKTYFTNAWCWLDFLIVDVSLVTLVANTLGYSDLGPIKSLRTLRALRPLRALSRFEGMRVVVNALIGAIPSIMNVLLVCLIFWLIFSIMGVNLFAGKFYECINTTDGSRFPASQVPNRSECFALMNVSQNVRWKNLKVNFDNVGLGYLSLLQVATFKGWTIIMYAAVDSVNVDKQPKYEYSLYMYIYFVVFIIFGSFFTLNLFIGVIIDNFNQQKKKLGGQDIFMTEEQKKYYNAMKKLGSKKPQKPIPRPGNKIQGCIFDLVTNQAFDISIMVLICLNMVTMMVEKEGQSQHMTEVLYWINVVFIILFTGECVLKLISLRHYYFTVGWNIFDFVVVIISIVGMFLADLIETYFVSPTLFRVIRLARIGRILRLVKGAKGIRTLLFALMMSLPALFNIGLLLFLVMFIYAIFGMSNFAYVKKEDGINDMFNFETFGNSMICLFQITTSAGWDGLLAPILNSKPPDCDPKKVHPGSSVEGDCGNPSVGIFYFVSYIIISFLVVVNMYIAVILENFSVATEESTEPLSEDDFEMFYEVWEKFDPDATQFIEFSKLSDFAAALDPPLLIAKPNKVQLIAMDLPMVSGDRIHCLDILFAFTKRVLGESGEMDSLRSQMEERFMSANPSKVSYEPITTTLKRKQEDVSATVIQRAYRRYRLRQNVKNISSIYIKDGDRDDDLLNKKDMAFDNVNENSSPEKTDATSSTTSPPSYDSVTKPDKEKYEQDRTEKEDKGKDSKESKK
T2 sequence (Q07699 19-218, further chain): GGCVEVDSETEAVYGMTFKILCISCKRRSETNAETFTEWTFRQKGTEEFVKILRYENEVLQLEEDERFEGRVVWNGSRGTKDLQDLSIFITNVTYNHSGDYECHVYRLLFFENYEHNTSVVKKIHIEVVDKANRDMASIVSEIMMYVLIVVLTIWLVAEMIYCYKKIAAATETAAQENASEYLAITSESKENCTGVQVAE
T2 sequence (O60939 30-215, further chain): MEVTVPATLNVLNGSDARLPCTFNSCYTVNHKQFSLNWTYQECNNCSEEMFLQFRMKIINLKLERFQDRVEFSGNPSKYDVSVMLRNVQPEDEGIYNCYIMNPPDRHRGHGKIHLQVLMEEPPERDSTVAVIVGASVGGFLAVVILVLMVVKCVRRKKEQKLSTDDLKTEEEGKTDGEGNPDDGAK

T1 sequence (Q62968 whole entry): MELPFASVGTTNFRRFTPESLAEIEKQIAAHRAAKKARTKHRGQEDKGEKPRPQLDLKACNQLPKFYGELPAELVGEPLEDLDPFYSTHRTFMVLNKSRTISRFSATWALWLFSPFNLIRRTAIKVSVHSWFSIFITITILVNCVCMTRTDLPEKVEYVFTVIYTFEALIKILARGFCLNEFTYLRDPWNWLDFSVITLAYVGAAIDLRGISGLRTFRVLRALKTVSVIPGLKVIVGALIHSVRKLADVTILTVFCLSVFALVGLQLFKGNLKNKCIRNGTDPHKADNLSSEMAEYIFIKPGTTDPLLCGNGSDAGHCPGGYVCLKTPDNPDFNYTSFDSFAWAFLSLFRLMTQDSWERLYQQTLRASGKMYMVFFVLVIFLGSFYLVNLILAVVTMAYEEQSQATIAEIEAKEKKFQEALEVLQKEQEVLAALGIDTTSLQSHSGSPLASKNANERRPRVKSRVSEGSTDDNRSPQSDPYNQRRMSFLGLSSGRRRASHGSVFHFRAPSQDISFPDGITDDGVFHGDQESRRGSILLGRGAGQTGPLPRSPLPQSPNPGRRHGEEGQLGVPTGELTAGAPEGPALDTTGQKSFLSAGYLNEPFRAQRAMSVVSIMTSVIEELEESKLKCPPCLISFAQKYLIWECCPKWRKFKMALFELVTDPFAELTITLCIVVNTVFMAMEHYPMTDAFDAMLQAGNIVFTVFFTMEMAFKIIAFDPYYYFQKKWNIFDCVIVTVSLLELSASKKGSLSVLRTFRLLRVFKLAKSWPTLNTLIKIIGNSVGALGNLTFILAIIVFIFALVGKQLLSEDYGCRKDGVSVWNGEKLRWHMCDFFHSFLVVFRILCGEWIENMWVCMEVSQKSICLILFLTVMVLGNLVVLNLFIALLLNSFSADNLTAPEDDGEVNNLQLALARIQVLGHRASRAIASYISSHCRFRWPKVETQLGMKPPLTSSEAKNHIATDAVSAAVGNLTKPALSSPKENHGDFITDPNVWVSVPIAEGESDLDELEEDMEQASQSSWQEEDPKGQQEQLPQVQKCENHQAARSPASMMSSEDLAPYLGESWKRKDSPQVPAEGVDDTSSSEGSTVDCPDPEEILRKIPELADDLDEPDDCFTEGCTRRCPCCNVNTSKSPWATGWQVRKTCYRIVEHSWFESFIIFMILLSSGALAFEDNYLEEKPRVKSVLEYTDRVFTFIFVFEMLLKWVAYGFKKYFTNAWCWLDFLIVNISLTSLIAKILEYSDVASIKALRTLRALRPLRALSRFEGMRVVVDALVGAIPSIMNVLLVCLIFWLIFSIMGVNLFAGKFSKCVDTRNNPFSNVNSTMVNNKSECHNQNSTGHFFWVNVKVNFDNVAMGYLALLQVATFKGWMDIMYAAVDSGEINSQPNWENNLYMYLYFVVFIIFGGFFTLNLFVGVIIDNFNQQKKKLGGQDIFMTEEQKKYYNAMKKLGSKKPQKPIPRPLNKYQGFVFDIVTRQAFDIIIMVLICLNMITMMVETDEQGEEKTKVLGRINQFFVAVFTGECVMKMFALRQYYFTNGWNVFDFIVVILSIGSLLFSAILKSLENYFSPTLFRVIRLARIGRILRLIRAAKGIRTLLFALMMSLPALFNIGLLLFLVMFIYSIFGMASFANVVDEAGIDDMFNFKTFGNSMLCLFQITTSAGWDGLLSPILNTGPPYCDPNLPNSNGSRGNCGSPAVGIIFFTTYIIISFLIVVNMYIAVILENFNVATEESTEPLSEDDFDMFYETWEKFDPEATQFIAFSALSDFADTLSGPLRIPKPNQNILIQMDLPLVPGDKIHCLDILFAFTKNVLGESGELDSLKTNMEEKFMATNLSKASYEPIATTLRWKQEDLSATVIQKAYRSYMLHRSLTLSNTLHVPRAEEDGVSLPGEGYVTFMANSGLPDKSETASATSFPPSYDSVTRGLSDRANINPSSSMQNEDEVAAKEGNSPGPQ

SMILES	IC50 for rNav1.4 and hNav1.5 relative to that for rNav1.8 [1]	inhibition of rpTx1-evoked persistent currents [2]
CC[C@H](C)[C@H](NC(=O)[C@@H](N)CCCCN)C(=O)N[C@@H](Cc1ccccc1)C(=O)N[C@@H](CCSC)C(=O)N[C@@H](CCCCN)C(=O)O [KIFMK]	two time smaller	–
NC1=N[C@H](O)[C@H]2[C@H]3O[C@]4(O)O[C@@H]([C@@H](O)[C@@]2(N1)[C@@H]4O)[C@]3(O)CO [TTX, tetrodotoxin]	–	completely inhibited
